Experimental data published in ChEMBL document CHEMBL1201862, “PubChem BioAssay data set” (2004).
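These data come from cells grown in 96-well plates and exposed to compound for 48 hours at five concentrations. GI50 marks 50% less growth.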 Calls of active or inactive are those of the source. Cut-off read from the data, not from the text of the source: active = GI50 up to about 1.1 µM and inactive = higher.

Experiments:
Experiment in all cases: NCI anticancer screen, dose series, 48 h
KM12 = tested on: KM12
NCI-H522 = tested on: NCI-H522
Malme-3M = tested on: Malme-3M
ACHN = tested on: ACHN
UACC-257 = tested on: UACC-257
SN12C = tested on: SN12C
SK-OV-3 = tested on: SK-OV-3
SF-539 = tested on: SF-539
RXF 393 = tested on: RXF 393
HCC 2998 = tested on: HCC 2998
SNB-19 = tested on: SNB-19
K562 = tested on: K562
HOP-92 = tested on: HOP-92
IGROV-1 = tested on: IGROV-1
SK-MEL-28 = tested on: SK-MEL-28
SNB-75 = tested on: SNB-75
OVCAR-5 = tested on: OVCAR-5
OVCAR-3 = tested on: OVCAR-3
NCI/ADR-RES = tested on: NCI/ADR-RES
HCT-15 = tested on: HCT-15

**Q.** With `COc1ccc2c(c1)[n+]([O-])c(/C(C)=N/NC(N)=S)c(C)[n+]2[O-]` as the compound, how does the GI50 (KM12) read?
**A.** > 85.9 µM (inactive)

**Q.** And the GI50 (NCI-H522)?
**A.** 31 µM (inactive)

**Q.** What about the GI50 (Malme-3M) of the same compound?
**A.** 75.7 µM (inactive)

**Q.** What about the GI50 (ACHN) of the same compound?
**A.** 38.5 µM (inactive)

**Q.** What about the GI50 (UACC-257) of the same compound?
**A.** > 60.3 µM (inactive)

**Q.** What about the GI50 (SN12C) of the same compound?
**A.** 39.4 µM (inactive)

**Q.** What about the GI50 (SK-OV-3) of the same compound?
**A.** > 100 µM (inactive)

**Q.** What about the GI50 (SF-539) of the same compound?
**A.** > 59.8 µM (inactive)

**Q.** And the GI50 (RXF 393)?
**A.** > 72.9 µM (inactive)

**Q.** What about the GI50 (HCC 2998) of the same compound?
**A.** 20.5 µM (inactive)

**Q.** And the GI50 (SNB-19)?
**A.** > 100 µM (inactive)

**Q.** And the GI50 (K562)?
**A.** 41.5 µM (inactive)

**Q.** What about the GI50 (HOP-92) of the same compound?
**A.** > 85.9 µM (inactive)

**Q.** And the GI50 (IGROV-1)?
**A.** > 88.1 µM (inactive)

**Q.** And the GI50 (SK-MEL-28)?
**A.** > 56.2 µM (inactive)

**Q.** And the GI50 (SNB-75)?
**A.** 79.4 µM (inactive)

**Q.** And the GI50 (OVCAR-5)?
**A.** > 88.5 µM (inactive)

**Q.** What about the GI50 (OVCAR-3) of the same compound?
**A.** 33.9 µM (inactive)

**Q.** What about the GI50 (NCI/ADR-RES) of the same compound?
**A.** 28.8 µM (inactive)

**Q.** What about the GI50 (HCT-15) of the same compound?
**A.** 45.6 µM

**Q.** For `COCCOCCOCCOc1ccc(C(C#N)N(CCc2ccccc2)C(=O)c2cc(C(=O)N(CCc3ccccc3)C(C#N)c3ccc(OCCOCCOCCOC)cc3)cc(C(=O)N(CCc3ccccc3)C(C#N)c3ccc(OCCOCCOCCOC)cc3)c2)cc1` (stereo not given), which GI50 (KM12) is on record?
**A.** > 100 µM (inactive)

**Q.** What about the GI50 (NCI-H522) of the same compound?
**A.** > 100 µM (inactive)

**Q.** And the GI50 (Malme-3M)?
**A.** > 100 µM (inactive)

**Q.** What about the GI50 (ACHN) of the same compound?
**A.** > 100 µM (inactive)

**Q.** What about the GI50 (UACC-257) of the same compound?
**A.** > 100 µM (inactive)

**Q.** And the GI50 (SN12C)?
**A.** > 100 µM (inactive)

**Q.** What about the GI50 (SK-OV-3) of the same compound?
**A.** > 100 µM (inactive)

**Q.** And the GI50 (SF-539)?
**A.** > 100 µM (inactive)

**Q.** And the GI50 (RXF 393)?
**A.** > 100 µM (inactive)

**Q.** And the GI50 (HCC 2998)?
**A.** > 100 µM (inactive)

**Q.** And the GI50 (SNB-19)?
**A.** > 100 µM (inactive)

**Q.** What about the GI50 (K562) of the same compound?
**A.** > 100 µM (inactive)

**Q.** What about the GI50 (HOP-92) of the same compound?
**A.** 85.7 µM (inactive)

**Q.** And the GI50 (IGROV-1)?
**A.** > 100 µM (inactive)

**Q.** What about the GI50 (SK-MEL-28) of the same compound?
**A.** > 100 µM (inactive)

**Q.** And the GI50 (SNB-75)?
**A.** > 100 µM (inactive)

**Q.** And the GI50 (OVCAR-5)?
**A.** > 100 µM (inactive)

**Q.** What about the GI50 (OVCAR-3) of the same compound?
**A.** > 100 µM (inactive)

**Q.** And the GI50 (NCI/ADR-RES)?
**A.** > 100 µM (inactive)

**Q.** What about the GI50 (HCT-15) of the same compound?
**A.** > 100 µM

**Q.** With `COCCOCCOC1=C(Cl)C(=O)c2c(O)ccc(O)c2C1=O` as the compound, how does the GI50 (KM12) read?
**A.** 12.8 µM (inactive)

**Q.** And the GI50 (NCI-H522)?
**A.** 1.01 µM (active)

**Q.** And the GI50 (Malme-3M)?
**A.** 1.65 µM (inactive)

**Q.** What about the GI50 (ACHN) of the same compound?
**A.** 1.68 µM (inactive)

**Q.** And the GI50 (UACC-257)?
**A.** 1.99 µM (inactive)

**Q.** What about the GI50 (SN12C) of the same compound?
**A.** 1.89 µM (inactive)

**Q.** What about the GI50 (SK-OV-3) of the same compound?
**A.** 19 µM (inactive)

**Q.** What about the GI50 (SF-539) of the same compound?
**A.** 1.67 µM (inactive)

**Q.** And the GI50 (RXF 393)?
**A.** 1.44 µM (inactive)

**Q.** And the GI50 (HCC 2998)?
**A.** 18.6 µM (inactive)

**Q.** And the GI50 (SNB-19)?
**A.** 13.5 µM (inactive)

**Q.** And the GI50 (K562)?
**A.** 1.21 µM (inactive)

**Q.** And the GI50 (HOP-92)?
**A.** 1.98 µM (inactive)

**Q.** And the GI50 (IGROV-1)?
**A.** 2.62 µM (inactive)

**Q.** What about the GI50 (SK-MEL-28) of the same compound?
**A.** 2.33 µM (inactive)

**Q.** What about the GI50 (SNB-75) of the same compound?
**A.** 15.6 µM (inactive)

**Q.** What about the GI50 (OVCAR-5) of the same compound?
**A.** 9.04 µM (inactive)

**Q.** And the GI50 (OVCAR-3)?
**A.** 1.63 µM (inactive)

**Q.** What about the GI50 (NCI/ADR-RES) of the same compound?
**A.** 2.93 µM (inactive)

**Q.** And the GI50 (HCT-15)?
**A.** 1.61 µM

**Q.** For `CN(Cc1cnc2nc(N)nc(N)c2n1)c1ccc(C(=O)NC(CCC(=O)O)C(=O)O)cc1` (stereo not given), which GI50 (KM12) is on record?
**A.** < 0.0164 µM (active)

**Q.** And the GI50 (NCI-H522)?
**A.** 0.398 µM (active)

**Q.** And the GI50 (Malme-3M)?
**A.** 7.29 µM (inactive)

**Q.** What about the GI50 (ACHN) of the same compound?
**A.** 0.0204 µM (active)

**Q.** And the GI50 (UACC-257)?
**A.** 0.815 µM (active)

**Q.** What about the GI50 (SN12C) of the same compound?
**A.** < 0.011 µM (active)

**Q.** What about the GI50 (SK-OV-3) of the same compound?
**A.** 1.24 µM (inactive)

**Q.** What about the GI50 (SF-539) of the same compound?
**A.** < 0.014 µM (active)

**Q.** What about the GI50 (RXF 393) of the same compound?
**A.** > 100 µM (inactive)

**Q.** What about the GI50 (HCC 2998) of the same compound?
**A.** 41.5 µM (inactive)

**Q.** And the GI50 (SNB-19)?
**A.** 0.619 µM (active)

**Q.** What about the GI50 (K562) of the same compound?
**A.** < 0.01 µM (active)

**Q.** What about the GI50 (HOP-92) of the same compound?
**A.** 25.4 µM (inactive)

**Q.** And the GI50 (IGROV-1)?
**A.** 0.082 µM (active)

**Q.** And the GI50 (SK-MEL-28)?
**A.** 1.25 µM (inactive)

**Q.** What about the GI50 (SNB-75) of the same compound?
**A.** > 57 µM (inactive)

**Q.** And the GI50 (OVCAR-5)?
**A.** > 100 µM (inactive)

**Q.** What about the GI50 (OVCAR-3) of the same compound?
**A.** 0.111 µM (active)

**Q.** What about the GI50 (NCI/ADR-RES) of the same compound?
**A.** 0.0249 µM (active)

**Q.** And the GI50 (HCT-15)?
**A.** < 0.01 µM

**Q.** What does the source list for `CN1CCC[N+](C)=C1c1ccccc1`?
**A.** GI50 (KM12): > 100 µM (inactive); GI50 (NCI-H522): > 100 µM (inactive); GI50 (Malme-3M): > 100 µM (inactive); GI50 (ACHN): > 100 µM (inactive); GI50 (UACC-257): > 100 µM (inactive); GI50 (SN12C): > 100 µM (inactive); GI50 (SK-OV-3): > 100 µM (inactive); GI50 (SF-539): > 100 µM (inactive); GI50 (RXF 393): > 100 µM (inactive); GI50 (HCC 2998): > 100 µM (inactive); GI50 (SNB-19): > 100 µM (inactive); GI50 (K562): > 100 µM (inactive); GI50 (HOP-92): > 100 µM (inactive); GI50 (IGROV-1): > 100 µM (inactive); GI50 (SK-MEL-28): > 100 µM (inactive); GI50 (SNB-75): > 100 µM (inactive); GI50 (OVCAR-5): > 100 µM (inactive); GI50 (OVCAR-3): > 100 µM (inactive); GI50 (NCI/ADR-RES): > 100 µM (inactive); GI50 (HCT-15): > 100 µM
